Tests used:
Syk = Syk (Homo sapiens (Human), UniProt P43405); assay: Syk enzyme inhibition (FRET); type: biochemical
Description: (§1) The enzyme inhibitory activities of compounds disclosed herein are determined by FRET using synthetic peptides labelled with both donor and acceptor fluorophores (Z-LYTE, Invitrogen Ltd., Paisley, UK).
(§2) The inhibitory activities of compounds of the invention against c-Src and Syk enzymes (Invitrogen), are evaluated in a similar fashion to that described hereinabove. The relevant enzyme (3000 ng/mL or 2000 ng/mL respectively, 2.5 μL) is incubated with the test compound (either 4 μg/mL, 0.4 μg/mL, 0.04 μg/mL, or 0.004 μg/mL, 2.5 μL each) for 2 hr at RT. The FRET peptides (8 μM. 2.5 μL), and appropriate ATP solutions (2.5 μL, 800 μM for c-Src, and 60 μM ATP for Syk) are then added to the enzymes/compound mixtures and incubated for 1 hr. Development reagent (protease, 5 μL) is added for 1 hr prior to detection in a fluorescence microplate reader (Varioskan® Flash, ThermoFisher Scientific).
(§3) In all cases, the site-specific protease cleaves non-phosphorylated peptide only and eliminates the FRET signal. Phosphorylation levels of each reaction are calculated using the ratio of coumarin emission (donor) over fluorescein emission (acceptor), for which high ratios indicate high phosphorylation and low ratios indicate low phosphorylation levels.

GSK3α = GSK3α (Homo sapiens (Human), UniProt P49840); assay: GSK 3α enzyme inhibition (FRET, Method 2); type: biochemical
Description: as §1
The inhibitory activities of compounds of the invention against the GSK 3α enzyme isoform (Invitrogen), are evaluated by determining the level of activation/phosphorylation of the target peptide. The GSK3-α protein (500 ng/mL, 2.5 μL) is mixed with the test compound (2.5 μL at either 4 μg/mL, 0.4 μg/mL, 0.04 μg/mL, or 0.004 μg/mL) for 2 hr at RT. The FRET peptide (8 μM, 2.5 μL), which is a phosphorylation target for GSK3α, and ATP (40 μM, 2.5 μL) are then added to the enzyme/compound mixture and the resulting mixture incubated for 1 hr. Development reagent (protease, 5 μL) is added for 1 hr prior to detection in a fluorescence microplate reader (Varioskan® Flash, ThermoFisher Scientific).
as §3

HT29 cells = assay: (d) IL-1β-induced IL-8 release in HT29 cells; type: cell-based; settings: Homo sapiens, HT-29, read-out: IC50 for Inhibition of Cytokine Release, IL-8
Description: HT29 cells, a human colon adenocarcinoma cell line, are plated in a 96 well plate (24 hrs) and pre-treated with compounds at the desired concentration for 2 hours before addition of 5 ng/ml of IL-1β (Abeam) for 24 hours. Supernatants are harvested for IL-8 quantification by Sandwich ELISA (Duo-set, R&D System). The IC50 is determined from the dose response curve.

PBMCs [1] = assay: (b) LPS-induced TNFα/IL-8 release in PBMC cells; type: cell-based; settings: Homo sapiens, read-out: IC50 for Inhibition of Cytokine Release, IL-8
Description: Peripheral blood mononuclear cells (PBMCs) from healthy subjects are separated from whole blood using a density gradient (Lymphoprep, Axis-Shield Healthcare). The PBMCs are seeded in 96 well plates and treated with compounds at the desired concentration for 2 hours before addition of 1 ng/ml LPS (Escherichia Coli 0111:B4 from Sigma Aldrich) for 24 hours under normal tissue culture conditions (37° C., 5% CO2). The supernatant is harvested for determination of IL-8 and TNFα concentrations by sandwich ELISA (Duo-set, R&D systems) and read on the fluorescence microplate reader (Varioskan® Flash, ThermoFisher Scientific).

PBMCs [2] = assay: (c) IL-2 and IFN gamma release in CD3/CD28 stimulated PBMC cells; type: cell-based; settings: Homo sapiens
Description: PBMCs from healthy subjects are separated from whole blood using a density gradient (Lymphoprep, Axis-Shield Healthcare). Cells are added to a 96 well plate pre-coated with a mixture of CD3/CD28 monoclonal antibodies (0.3 ug/ml eBioscience and 3 ug/ml BD Pharmingen respectively). Compound at the desired concentration is then added to the wells and the plate left for 3 days under normal tissue culture conditions. […] The IC50 is determined from the dose response curve.

p38 MAPKα = p38 MAPKα (Homo sapiens (Human), UniProt Q16539); assay: p38 MAPKα enzyme inhibition (FRET, Method 2); type: biochemical
Description: as §1
The inhibitory activities of test compounds against the p38 MAPKα isoform (MAPK14: Invitrogen), are evaluated indirectly by determining the level of activation/phosphorylation of the down-stream molecule, MAPKAP-K2. The p38 MAPKα protein (80 ng/mL, 2.5 μL) is mixed with the test compound (2.5 μL of either 4 μg/mL, 0.4 μg/mL, 0.04 μg/mL or 0.004 μg/mL) for 2 hr at RT. […] The mixture is incubated for 1 hr at RT. Development reagent (protease, 5 μL) is added for 1 hr prior to detection in a fluorescence microplate reader (Varioskan® Flash, ThermoFisher Scientific).
as §3

PBMCs [3] = assay: (i) Cell mitosis assay in PBMCs; type: cell-based; settings: Homo sapiens, PBMC, 5 μg/mL
Description: PBMCs from healthy subjects are separated from whole blood (Quintiles, London, UK) using a density gradient (Histopaque®-1077, Sigma-Aldrich, Poole, UK). The PBMCs (3 million cells per sample) are subsequently treated with 2% PHA (Sigma-Aldrich, Poole, UK) for 48 hr, followed by a 20 hr exposure to varying concentrations of test compounds. At 2 hr before collection, PBMCs are treated with demecolcine (0.1 μg/mL; Invitrogen, Paisley, UK) to arrest cells in metaphase. […] Fluorescence is observed using an ATTUNE flow cytometer (Invitrogen, Paisley, UK), gating for lymphocytes.

β-catenin = assay: (m) Accumulation of β catenin in d-U937 cells; type: cell-based, human; settings: Reference Compound at 1 μg/mL defined as 100%
Description: U937 cells, a human monocytic cell line, are differentiated into macrophage-type cells by incubation with PMA; (100 ng/mL) for between 48 to 72 hr. The cells are then incubated with either final concentrations of test compound or vehicle for 18 hr. The induction of β-catenin by the test compounds is stopped by replacing the media with 4% formaldehyde solution. Endogenous peroxide activity is neutralised by incubating with quenching buffer (100 μL, 0.1% sodium azide, 1% H2O2 in PBS with 0.05% Tween-20) for 20 min. The cells are washed with washing buffer (200 μL; PBS containing 0.05% Tween-20) and incubated with blocking solution (200 μL; 5% milk in PBS) for 1 hr, re-washed with washing buffer (200 μL) and then incubated overnight with anti-β-catenin antibody solution (50 μL) in 1% BSA/PBS (BD, Oxford, UK).
After washing with washing buffer (3×200 μL; PBS containing 0.05% Tween-20), cells are incubated with an HRP-conjugated secondary antibody solution (100 μL) in 1% BSA/PBS (Dako, Cambridge, UK) and the resultant signal is determined colourimetrically (OD: 450 nm with a reference wavelength of 655 nm) using TMB substrate (50 μL; R&D Systems, Abingdon, UK). This reaction is stopped by addition of 1N H2SO4 solution (50 μL). Cells are then washed with washing buffer and 2% crystal violet solution (50 μL) is applied for 30 min. After washing with washing buffer (3×200 μL), 1% SDS (100 μL) is added to each well and the plates are shaken lightly for 1 hr prior to measuring the absorbance at 595 nm (Varioskan® Flash, Thermo-Fisher Scientific).
The measured OD450-655 readings are corrected for cell number by dividing the OD450-655 by the OD595 readings.

c-Src = c-Src (Homo sapiens (Human), UniProt P12931); assay: c-Src enzyme inhibition (FRET); type: biochemical
Description: as §1, §2, §3

[4] = Hydrolytic stability study in DMSO and water (3:1); type: physicochemical; settings: 1 mg/mL
Description: General HPLC Procedure • Agilent, Waters X-Select C18, 2.5 μm, 4.6×30 mm column, 4 min method, 5-95% MeCN/water (0.1% formic acid). • Flow rate 2.5 ml/min • Column Oven Temperature 40° C. • Detection 254 nm.
Sample Preparation • A 1.0 mg sample of test compound was dissolved in 750 μL of DMSO. Water (250 μL) was added slowly, ensuring no precipitation occurred.
Recording Stability • A 50 μL aliquot of the test solution was removed and analysed in duplicate by 5 μL HPLC injections. The peak area for the test compound was recorded following manual integration of the corresponding UV trace. • The test solution was heated to 60° C., with stirring, and 50 μL aliquots removed for HPLC analysis at 5 and 24 h timepoints.

[5] = read-out: IC50 for Inhibition of Cytokine Release, IFNγ
[6] = read-out: IC50 for Inhibition of Cytokine Release, IL-2

Chain of c-Src (P12931 whole entry, looked up): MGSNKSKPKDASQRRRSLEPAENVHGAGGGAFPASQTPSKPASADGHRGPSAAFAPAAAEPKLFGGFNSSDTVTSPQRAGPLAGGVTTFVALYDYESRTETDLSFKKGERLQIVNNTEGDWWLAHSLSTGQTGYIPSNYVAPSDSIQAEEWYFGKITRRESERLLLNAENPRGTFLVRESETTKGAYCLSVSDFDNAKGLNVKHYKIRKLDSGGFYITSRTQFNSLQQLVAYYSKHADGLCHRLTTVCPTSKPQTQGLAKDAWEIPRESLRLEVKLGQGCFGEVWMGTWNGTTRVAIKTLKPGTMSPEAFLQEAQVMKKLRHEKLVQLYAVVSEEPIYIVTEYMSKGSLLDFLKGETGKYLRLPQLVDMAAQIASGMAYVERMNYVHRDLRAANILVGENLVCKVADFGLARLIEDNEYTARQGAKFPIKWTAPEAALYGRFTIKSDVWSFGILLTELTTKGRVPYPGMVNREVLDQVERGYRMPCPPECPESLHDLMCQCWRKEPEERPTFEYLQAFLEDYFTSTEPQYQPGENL
Chain of GSK3α (P49840 whole entry): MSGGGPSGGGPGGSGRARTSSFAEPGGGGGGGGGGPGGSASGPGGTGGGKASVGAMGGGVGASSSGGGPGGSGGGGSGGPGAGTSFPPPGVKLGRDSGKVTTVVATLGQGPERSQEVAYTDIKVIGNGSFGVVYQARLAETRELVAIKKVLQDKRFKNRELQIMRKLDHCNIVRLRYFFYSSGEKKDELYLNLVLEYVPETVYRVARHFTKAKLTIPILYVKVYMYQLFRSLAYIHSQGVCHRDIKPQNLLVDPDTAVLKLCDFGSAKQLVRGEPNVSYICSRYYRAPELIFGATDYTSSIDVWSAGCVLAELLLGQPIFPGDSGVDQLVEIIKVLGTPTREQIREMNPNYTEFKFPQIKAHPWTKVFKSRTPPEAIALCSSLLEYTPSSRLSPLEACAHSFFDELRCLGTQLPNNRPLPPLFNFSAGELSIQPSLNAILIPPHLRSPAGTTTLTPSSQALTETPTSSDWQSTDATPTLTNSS
Chain of p38 MAPKα (Q16539 whole entry): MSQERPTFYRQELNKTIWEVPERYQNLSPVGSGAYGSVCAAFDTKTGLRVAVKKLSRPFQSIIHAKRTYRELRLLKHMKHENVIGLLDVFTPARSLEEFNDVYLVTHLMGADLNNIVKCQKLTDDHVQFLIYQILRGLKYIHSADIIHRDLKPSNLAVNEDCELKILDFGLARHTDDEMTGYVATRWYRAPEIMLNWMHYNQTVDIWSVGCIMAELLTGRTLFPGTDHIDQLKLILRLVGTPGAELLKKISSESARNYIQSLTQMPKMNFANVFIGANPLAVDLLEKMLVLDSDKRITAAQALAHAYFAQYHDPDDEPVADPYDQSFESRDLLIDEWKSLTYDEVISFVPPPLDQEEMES

Structure (SMILES): COCCOCCOCCNC(=O)c1cc(Nc2cc(Oc3ccc(NC(=O)Nc4cc(C(C)(C)C)nn4-c4ccc(C)cc4)c4ccccc34)ccn2)cc(OC)c1 [Example 4, 3-((4-((4-(3-(3-(tert-Butyl)-1-(p-tolyl)-1H-pyrazol-5-yl)ureido)naphthalen-1-yl)oxy)pyridin-2-yl)amino)-5-methoxy-N-(2-(2-(2-methoxyethoxy)ethoxy)ethyl)-benzamide]
- IC50 (Syk): 46 nM
- IC50 (GSK3α): 9550 nM
- IC50 (HT29 cells): 5.3 nM
- IC50 (PBMCs [1]): 1.4 nM
- IC50 (PBMCs [2]; [5]): 2.4 nM
- IC50 (PBMCs [2]; [6]): 37.4 nM
- IC50 (p38 MAPKα): 50 nM
- inhibition at 5 µg/mL (PBMCs [3]): 38.8%
- % β-catenin induction (β-catenin; 1 μg/mL): 5%
- % β-catenin induction (β-catenin; 5 μg/mL): 12%
- IC50 (c-Src): 19 nM

Structure (SMILES): C#Cc1cc(Nc2nccc(Oc3ccc(NC(=O)Nc4cc(C(C)(C)C)nn4-c4ccc(C)cc4)c4ccccc34)n2)cc(C(=O)NCCOCCOCCOCCOC)c1 [Example 7, 3-((4-((4-(3-(3-(tert-Butyl)-1-(p-tolyl)-1H-pyrazol-5-yl)ureido)naphthalen-1-yl)oxy)pyrimidin-2-yl)amino)-5-ethynyl-N-(2,5,8,11-tetraoxatridecan-13-yl)benzamide]
- IC50 (Syk): 237 nM
- IC50 (GSK3α): 2020 nM
- IC50 (HT29 cells): 1.6 nM
- IC50 (PBMCs [1]): 2.4 nM
- IC50 (PBMCs [2]; [5]): 3.7 nM
- IC50 (PBMCs [2]; [6]): 91 nM
- IC50 (p38 MAPKα): 88 nM
- inhibition at 5 µg/mL (PBMCs [3]): 9.1%
- % β-catenin induction (β-catenin; 1 μg/mL): 0%
- % β-catenin induction (β-catenin; 5 μg/mL): −2%
- % β-catenin induction (β-catenin; 10 μg/mL): −5%
- IC50 (c-Src): 18 nM

Structure (SMILES): C#Cc1cc(Nc2nccc(Oc3ccc(NC(=O)Nc4cc(C(C)(C)C)nn4-c4ccc(C)cc4)c4ccccc34)n2)cc(C(=O)NCCOCCOC)c1 [Example 8, 3-((4-((4-(3-(3-(tert-Butyl)-1-(p-tolyl)-1H-pyrazol-5-yl)ureido)naphthalen-1-yl)oxy)pyrimidin-2-yl)amino)-5-ethynyl-N-(2-(2-methoxyethoxy)ethyl)benzamide]
- IC50 (Syk): 120 nM
- IC50 (GSK3α): 2890 nM
- IC50 (HT29 cells): 3.2 nM
- IC50 (PBMCs [1]): 1.6 nM
- IC50 (PBMCs [2]; [5]): 8.5 nM
- IC50 (PBMCs [2]; [6]): 55 nM
- IC50 (p38 MAPKα): 104 nM
- inhibition at 5 µg/mL (PBMCs [3]): 6.1%
- % β-catenin induction (β-catenin; 1 μg/mL): 6%
- % β-catenin induction (β-catenin; 5 μg/mL): 3%
- % β-catenin induction (β-catenin; 10 μg/mL): 2%
- IC50 (c-Src): 20 nM

Structure (SMILES): C#Cc1cc(Nc2nccc(Oc3ccc(NC(=O)Nc4cc(C(C)C)nn4-c4ccc(C)cc4)c4ccccc34)n2)cc(C(=O)NCCN2CCOCC2)c1 [Reference Compound A, 3-ethynyl-5-((4-((4-(3-(3-isopropyl-1-(p-tolyl)-1H-pyrazol-5-yl)ureido)naphthalen-1-yl)oxy)pyrimidin-2-yl)amino)-N-(2-morpholinoethyl)benzamide, reference compound]
- % left ([4]; 0 min): 100%
- % left ([4]; 60° C., 300 min): 82%
- % left ([4]; 60° C., 1440 min): 36%

Source: US10301288B2, “Kinase inhibitors” (Topivert Pharma Limited, priority 2013, dated 2019)
